Test results published in the supplement of paper PMC3493320.

Tested on: NCI-H295R
Assay: IC50 (antiproliferative, ATP content)
Details: 48 h
Outline: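 Cell viability of adrenocortical carcinoma cells was assessed as ATP by CellTiter-Glo luminescence. Cells at 1500 per well in 1536-well plates, in serum-free DMEM with ITS, received compounds by pin transfer at 8 final concentrations (0.6 nM–46 µM) after overnight culture and were then held 48 h at 37 °C, 5% CO2. IC50 was calculated by logistic fitting against vehicle and positive-control wells, compounds with no concentration response being recorded as above the top dose.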

| Structure (SMILES) | IC50 [µM] |
| --- | --- |
| O=[C@@](N[C@@H]([C@@](O)=O)CC2=CC=CC=C2)[C@@H]1CC[C@@H]([C@H](C)C)CC1 | > 46 |
| Cc1ccccc1-n1c(CF)nc2ccc(N)cc2c1=O | > 46 |
| Nc1ccn([C@@H]2O[C@H](CO)[C@@H](O)[C@@H]2O)c(=O)n1 | > 46 |
| O=C1CCC(c2ccccc2)(C2CCN(Cc3ccccc3)CC2)C(=O)N1 (centres undefined) | > 46 |
| CC[N+](C)(C)c1cccc(O)c1.[Cl-] | > 46 |
| N#CC2=CC=C1[C@@](OCC1=C2)([C@]3=CC=C(C=C3)F)CCCN(C)C.OC(C(O)=O)=O | > 46 |
| O=C1c2ccccc2C(=O)C1c1ccc(Br)cc1 | > 46 |
| COC1=C(OC)C(=O)C(C/C=C(\C)CC/C=C(\C)CC/C=C(\C)CC/C=C(\C)CC/C=C(\C)CC/C=C(\C)CC/C=C(\C)CC/C=C(\C)CC/C=C(\C)CCC=C(C)C)=C(C)C1=O | > 46 |
| Cc1cc(O)c(C(C)C)cc1Cl | > 46 |
| CC(C)CN(C[C@@H](O)[C@H](Cc1ccccc1)NC(=O)O[C@@H]1CCOC1)S(=O)(=O)c1ccc(N)cc1 | > 46 |
| CNC(=O)OCC[N+](C)(C)C.[Cl-] | > 46 |
| CCN(CC)CC#CCOC(=O)C(O)(c1ccccc1)C1CCCCC1.Cl (centres undefined) | > 46 |
| CCn1cc(C(=O)O)c(=O)c2cc(F)c(N3CCNCC3)nc21 | > 46 |
| CCCOC(=O)c1ccccc1 | > 46 |
| CN(C)CCOC(=O)C(c1ccccc1)C1(O)CCCC1.Cl (centres undefined) | > 46 |
| COc1ccc(S(=O)(=O)N2c3ccc(Cl)cc3[C@@](O)(c3ccccc3Cl)[C@H]2C(=O)N2CCC[C@@H]2C(N)=O)cc1OC | > 46 |
| NC(=S)N/N=C/c1cccnc1 | > 46 |
| CC(C)[N+](C)(C)CC(O)COc1cccc2ccccc12.[Cl-] (centres undefined) | > 46 |
| OC(O)C(Cl)(Cl)Cl | > 46 |
| Cc1ccc(/C(=C\CN2CCCC2)c2ccccn2)cc1 | > 46 |
| [O-][C@@]([C@@]13[C@@]([C@]2([H])OC(C)(C)OC[C@@]([H])2O3)([H])OC(C)(C)O1)=O.[Na+] | > 46 |
| O=C(N[C@H](CO)[C@H](O)c1ccc([N+](=O)[O-])cc1)C(Cl)Cl | > 46 |
| CCCCNc1ccc(C(=O)OCCOCCOCCOCCOCCOCCOCCOCCOCCOC)cc1 | > 46 |
| O=C1NCN(c2ccccc2)C12CCN(CCCOc1ccc(F)cc1)CC2 | > 46 |

| Structure (SMILES) | IC50 [µM] |
| --- | --- |
| CCOC(=O)OC(C)OC1=C(C(=O)Nc2ccccn2)N(C)S(=O)(=O)c2ccccc21 (centres undefined) | > 46 |
| CCCCCCCCCCCCCCCCCCCCCC(=O)Nc1ccn([C@@H]2O[C@H](CO)[C@@H](O)[C@@H]2O)c(=O)n1 | > 46 |
| COc1ccc(C(=O)c2c(C)n(CCN3CCOCC3)c3ccccc23)cc1 | > 46 |
| CN[C@@H]1[C@H](O)[C@H](NC)[C@H]2O[C@@]3(O)C(=O)C[C@@H](C)O[C@H]3O[C@@H]2[C@H]1O.Cl.Cl | > 46 |
| O=C(O)c1ccc(OCCn2ccnc2)cc1 | > 46 |
| CN1CCC(=C2c3ccccc3CC(=O)c3sccc32)CC1 | > 46 |
| CCCNC(C)(C)COC(=O)c1ccccc1.Cl | > 46 |
| CCN(CC)CCOCCOC(=O)C(CC)(CC)c1ccccc1.O=C(O)CC(O)(CC(=O)O)C(=O)O | > 46 |
| Nc1ccc(S(=O)(=O)NC(=O)c2ccccc2)cc1 | > 46 |
| O=C(C=Cc1ccccc1)NCCO | > 46 |
| NCCc1cnc[nH]1 | > 46 |
| O=C1O[C@H]([C@@H](O)CO)C(O)=C1O | > 46 |
| C1COC(NC(C2CC2)C2CC2)=N1 | > 46 |
| COC(=O)c1cccnc1 | > 46 |
| N=C(N)N/N=C1/C=C/C(C=C1)=N\NC(N)=S | > 46 |
| COc1ccc2cc([C@H](C)CO)ccc2c1 | > 46 |
| CN(C)C(=N)NC(=N)N.Cl | > 46 |
| c1ccc2sc(SN3CCOCC3)nc2c1 | > 46 |
| CC(=O)OCC(=O)[C@@]1(O)[C@H](C)C[C@H]2[C@@H]3CCC4=CC(=O)C=C[C@]4(C)[C@@]3(F)[C@@H](O)C[C@@]21C | > 46 |
| CC(=O)OCC1=C(C(=O)[O-])N2C(=O)[C@@H](NC(=O)CSc3ccncc3)[C@H]2SC1.[Na+] | > 46 |
| CCC1(c2cccc(O)c2)CCCCN(C)C1.Cl (centres undefined) | > 46 |
| CN1CCCC(CN2c3ccccc3Sc3ccccc32)C1 (centres undefined) | > 46 |
| N/C1=N/C(=O)N(/C=N1)[C@@H]2O[C@H](CO)[C@@H](O)[C@H]2O | > 46 |
| OCC(CO)N[C@H]1C[C@](O)(CO)[C@@H](O)[C@H](O)[C@H]1O | > 46 |

| Structure (SMILES) | IC50 [µM] |
| --- | --- |
| C=C(C)C1CC=C(C)CC1 (centres undefined) | > 46 |
| C[N@@+]1([O-])[C@@H]2CC[C@H]1C[C@@H](OC(=O)C(CO)c1ccccc1)C2 (some centres undefined) | > 46 |
| Nc1nc(/C(=C/CC(=O)O)C(=O)N[C@@H]2C(=O)N3C(C(=O)O)=CCS[C@H]23)cs1 | > 46 |
| O=c1c(-c2ccc(O)cc2)coc2cc(O)cc(O)c12 | > 46 |
| Cl.O=C(COc1ccc(Cl)cc1)N1CCN(Cc2ccc3c(c2)OCO3)CC1 | > 46 |
| CC(O)C(=O)O (centres undefined) | > 46 |
| N=C(N)NCC1COc2ccccc2O1 (centres undefined) | > 46 |
| CC(=O)N[C@@H](CC(C)C)C(=O)O | > 46 |
| O=C(Nc1ccc(C(=O)O)c(O)c1)c1ccccc1 | > 46 |
| CN1CCC(=C2c3ccccc3C=Cc3ccccc32)CC1 | > 46 |
| Cc1ccc(C)c(OCCCC(C)(C)C(=O)O)c1 | > 46 |
| CN1C[C@H](C(=O)N[C@]2(C)O[C@@]3(O)[C@@H]4CCCN4C(=O)[C@H](Cc4ccccc4)N3C2=O)C[C@@H]2c3cccc4[nH]cc(c34)C[C@H]21 | > 46 |
| O=[C@@](C)[C@@H]3[C@]2(C)[C@](CC3)([H])[C@@]1([H])[C@@](CC2)([H])[C@](CC[C@](O)(C)C4)(C)[C@@]4([H])CC1 | > 46 |
| CC(=C\c1ccccc1)/C=C1/SC(=S)N(CC(=O)O)C1=O | > 46 |
| O=C1C=CC([C@](N)2CC(C)=C3)=C(C[C@H]3/[C@]2=C\C)N1 | > 46 |
| [C@@]2\1(\C(=C/C(/C=C/1)=O)CC[C@@H]4[C@@H]2CC[C@@]3(OC(=O)CC[C@H]34)C)C | > 46 |
| COCC(C)N(C(=O)CCl)c1c(C)csc1C (centres undefined) | > 46 |
| CC[C@H](C)CCCCC(=O)N[C@@H](CCN)C(=O)N[C@H](C(=O)N[C@@H](CCN)C(=O)N[C@H]1CCNC(=O)[C@H]([C@@H](C)O)NC(=O)[C@H](CCN)NC(=O)[C@H](CCN)NC(=O)[C@H](CC(C)C)NC(=O)[C@@H](CC(C)C)NC(=O)[C@H](CCN)NC1=O)[C@@H](C)O.O=S(=O)(O)O | > 46 |
| CCCCCNC(=N)N/N=C/c1c[nH]c2ccc(OC)cc12 | > 46 |
| CC(C)[C@H](CC)CC[C@@H](C)[C@H]3CC[C@H]2[C@@H]4C\C=C1\C[C@@H](O)CC[C@]1(C)[C@H]4CC[C@@]23C | > 46 |
| Cl.N=C(N)NC(=N)N1CCOCC1 | > 46 |
| Cc1ccc(C(=O)C(C)CN2CCCCC2)cc1.Cl (centres undefined) | > 46 |
| CC[C@H]1OC(=O)[C@H](C)[C@@H](O[C@H]2C[C@@](C)(OC)[C@@H](O)[C@H](C)O2)[C@H](C)[C@@H](O[C@@H]2O[C@H](C)C[C@H](N(C)C)[C@H]2O)[C@](C)(O)C[C@@H](C)C(=NOCOCCOC)[C@H](C)[C@@H](O)[C@]1(C)O | > 46 |
| CO[C@@H]1[C@H](OC(=O)/C=C/C=C/C=C/C=C/C(=O)O)CC[C@]2(CO2)[C@H]1[C@@]1(C)O[C@@H]1CC=C(C)C | > 46 |

| Structure (SMILES) | IC50 [µM] |
| --- | --- |
| CNCC(O)c1ccc(OC(=O)C(C)(C)C)c(OC(=O)C(C)(C)C)c1.Cl (centres undefined) | > 46 |
| Br.COc1ccc2c(c1)[C@]13CCCC[C@@H]1[C@H](C2)N(C)CC3.O | > 46 |
| Cc1cccc(C)c1NC(=O)CN(CC(=O)O)CC(=O)O | > 46 |
| O=C([O-])c1nc(O)nc(O)n1.[K+] | > 46 |
| CN/C(=N\C#N)NCCSCc1csc(N=C(N)N)n1 | > 46 |
| O=C1C(=Cc2cccs2)CCCC1=Cc1cccs1 | > 46 |
| CCC(C(=O)OCCN(CC)CC)c1ccccc1 (centres undefined) | > 46 |
| COc1cc(/C=C/C(=O)N2CCN(CC(=O)N3CCCC3)CC2)cc(OC)c1OC.O=C(O)/C=C\C(=O)O | > 46 |
| O=[C@@](OCCl)[C@](CC2)(OC(OCC)=O)[C@]1(C)[C@]2([H])[C@@](CCC3=CC4=O)([H])[C@]([C@](C)3C=C4)([H])[C@@H](O)C1 | > 46 |
| NC(CSCC(=O)O)C(=O)O (centres undefined) | > 46 |
| CCC1=C(C)CN(C(=O)NCCc2ccc(S(=O)(=O)NC(=O)N[C@H]3CC[C@H](C)CC3)cc2)C1=O | > 46 |
| CN(c1nccc(=O)[nH]1)C1CCN(c2nc3ccccc3n2Cc2ccc(F)cc2)CC1 | > 46 |
| CCN(C(C)=O)c1cccc(-c2ccnc3c(C#N)cnn23)c1 | > 46 |
| CC(=O)OO | > 46 |
| [NH2][Pt]1([NH2])[O]C(=O)C2(CCC2)C(=O)[O]1 | > 46 |
| CCC[C@@H]1C[C@@H](C(=O)N[C@@H]([C@H]2O[C@H](SC)[C@H](O)[C@@H](O)[C@H]2O)[C@H](C)Cl)N(C)C1.Cl | > 46 |
| CCNC(=O)NCc1cccc(Cl)c1 | > 46 |
| CN[C@H](CC(C)C)C(=O)N[C@H]1C(=O)N[C@@H](CC(N)=O)C(=O)N[C@H]2C(=O)N[C@H]3C(=O)N[C@H](C(=O)N[C@@H](C(=O)O)c4cc(O)cc(O)c4-c4cc3ccc4O)[C@H](O)c3ccc(c(Cl)c3)Oc3cc2cc(c3O[C@@H]2O[C@H](CO)[C@@H](O)[C@H](O)[C@H]2O[C@H]2C[C@](C)(N)C(O)[C@H](C)O2)Oc2ccc(cc2Cl)[C@H]1O.Cl (some centres undefined) | > 46 |
| O=C1NCN(c2ccccc2)C12CCN(CC1COc3ccccc3O1)CC2 (centres undefined) | > 46 |
| COc1ccc(Cl)cc1C(=O)NCCc1ccc(S(=O)(=O)NC(=O)NC2CCCCC2)cc1 | > 46 |
| c1csc(C2(N3CCCCC3)CCCCC2)c1 | > 46 |
| CCCCCCCCCCCCCCCCCC[N+](C)(C)CCC[Si](OC)(OC)OC.[Cl-] | > 46 |
